Laboratory results taken from patent US11446307B2, “Crystalline forms of a deoxycytidine kinase inhibitor and uses thereof” (Trethera Corporation, priority 2020, dated 2022).

Assays:
[1] = system: myelin oligodendrocyte glycoprotein (MOG)-induced experimental autoimmune encephalomyelitis (EAE); experiment: Variable dose mouse model of MOG-induced experimental autoimmune encephalomyelitis (EAE); type: in vivo; details: vehicle BID 18 days, Log-rank p=0.039
Method: 60 female C57BL/6 mice were housed for an acclimation period of 1 week. 53 mice were enrolled in the study after randomization with a body weight between 18.3-22.3 g with an average body weight of 19.7 g per group on Study day minus 1.
For induction of MOG-EAE, MOG35-55 peptide was administered in phosphate buffered saline (PBS) and complete Freund's adjuvant (CFA). MOG35-55 peptide in PBS was emulsified in a 1:1 (v:v) mixture with CFA via homogenization in an Omni BeadRuptor Elite using 7 mL tubes pre-filled with 2.8 mm ceramic beads. Briefly, MOG35-55 peptide was brought up to 1 mg/mL in cold PBS, and 1.75 mL aliquoted into each homogenization tube. An equal volume (1.75 mL) CFA was then added for a total volume of 3.5 mL, on ice. Two rounds of homogenization were performed using a speed of 3.5 m/s; 3 cycles of 45 seconds with 30 seconds dwell at 4° C., followed by a third round with 2 cycles of 45 seconds and 30 seconds dwell at 4° C. In between each round, samples were placed on ice for ˜15 minutes. Tubes were spun down at 300 g for 1 minute at 4° C. Mice were anesthetized under isoflurane anesthesia. 100 μL (50 μg MOG35-55) was then injected subcutaneously into the flank of each leg (for a total of two injections and 100 μg MOG35-55). On Study Day 0 and Day 2, pertussis toxin was formulated at a concentration of […] in PBS, and 100 μL (200 ng) injected into each animal by intraperitoneal injection.
Treatment was performed BID starting on Day 1 for groups 2, 3, and 4, and once daily (QD) starting on day 1 for group 5. All experimental groups were n=12. The administration interval was 12 hours and the administration volume was 5 mL/kg.
The Body condition score of all animals was monitored on study Days 0, 7, 10 and then every other day. […]
Disease severity was scored on Day 0, 7 and every 2 days beginning on Day 10 onward for all groups. […]
Disease incidence rate was calculated as percentage of total animals per group starting from day 0 until termination on study day 28. […]

[2] = system: myelin oligodendrocyte glycoprotein (MOG)-induced experimental autoimmune encephalomyelitis (EAE); experiment: Mouse model of MOG-induced experimental autoimmune encephalomyelitis (EAE), prophylactic and therapeutic dosing; type: in vivo; details: 75 mg/kg P.O. BID Days 8-25 (therapeutic)
Method: Adult female C57BL/6J mice were randomly allocated to experimental groups and allowed to acclimatize for one week prior to commencing the study. On Day 0 and Day 7, animals were administered an emulsion (200 μL/mouse) of MOG35-55 and complete Freund's adjuvant (CFA). […]. On Day 0 (immediately post-MOG injection) and Day 2, animals were administered with pertussis toxin (PTx, 500 ng/mouse) prepared in phosphate buffered saline (PBS, 100 μL/mouse) by intra-peritoneal injection.
Treatment was performed twice daily (BID) prophylactically starting on Day 1 for groups 1, 2, and 4, and therapeutically starting on day 8 for group 3. All experimental groups were n=12. The administration interval was 12 hours and the administration volume was 5 mL/kg.
Because body weight loss is known to be an important hallmark of EAE occurring in correspondence of the appearance of the first symptoms, animals were weighed daily from the day of immunization (Day 0) until the end of the experiment. The changes in body weight observed over the course of the experiment for the different experimental groups, presented as mean±SEM, are summarized in FIG. 7. […]
From Day 0 until the end of the experiment, animals were scored daily for clinical signs of EAE to include paresis and paralysis affecting the tail and the limbs. […]

[3] = Accelerated stability tests of polymorph Form II (HPLC purity and potency); type: physicochemical
Method: High-performance liquid chromatography (HPLC) was performed using the following instrument and/or conditions.

| SMILES | median time to disease ([1]; 25 mg/kg BID PO) [days] | median time to disease ([1]; 75 mg/kg BID PO) [days] | median time to disease ([1]; 100 mg/kg QD PO) [days] | animals showing no symptoms at all (complete remission) ([2]; after Day 20) [%] | disease incidence (highest reached) ([2]; on Day 19, vehicle reached 100% on Day 13) [%] | Potency (%) ([3]; 25° C./60% RH for 1 week) | Purity (area %) ([3]; 25° C./60% RH for 1 week) | Potency (%) ([3]; 40° C./75% RH for 1 week) | Purity (area %) ([3]; 40° C./75% RH for 1 week) | Potency (%) ([3]; 60° C. for 1 week) | Purity (area %) ([3]; 60° C. for 1 week) | Potency (%) ([3]; API standard (no exposure)) | Purity (area %) ([3]; API standard (no exposure)) |
| --- | --- | --- | --- | --- | --- | --- | --- | --- | --- | --- | --- | --- | --- |
| COc1ccc(-c2nc([C@@H](C)Sc3nc(N)cc(N)n3)c(C)s2)cc1OCCN1CCOCC1 [Compound 1, (R)-2-((1-(2-(4-methoxy-3-(2-morpholinoethoxy)phenyl)-5-methylthiazol-4-yl)ethyl)thio)pyrimidine-4,6-diamine] | 18 | 19 | 20 | ~27 | ~92 | – | – | – | – | – | – | – | – |
| COc1ccc(-c2nc([C@@H](C)Sc3nc(N)cc(N)n3)c(C)s2)cc1OCCN1CCOCC1 [polymorph Form II, (R)-2-((1-(2-(4-methoxy-3-(2-morpholinoethoxy)phenyl)-5-methylthiazol-4-yl)ethyl)thio)pyrimidine-4,6-diamine] | – | – | – | – | – | 98.7 | 98.75 | 98.6 | 98.66 | 98.6 | 98.75 | 98.6 | 98.22 |
